From US20230051204A1, “ANTIMICROBIAL COMPOSITION CONTAINING WASP EXTRACT AS ACTIVE INGREDIENT” (priority 2021, published 2023)
“And” between values parts separate entries of the source, which are not always exact repeats. Equal entries are not always repeated.

Assays:
human erythrocytes = assay: Human erythrocyte hemolytic activity; details: 37° C., 30 minutes
Method: In order to evaluate the acute toxicities of the Vespa velutina nigrithorax, V. simillima simillima Smith and V. mandarinia Smith extracts and the fractions thereof, the human erythrocyte hemolytic activities thereof were evaluated. At this time, the hemolytic activity was evaluated according to a previous report (Son Ho-Yong et al., 2014, Korean J. Microbiol. Biotechnol. 42: 285-292). Briefly, 100 μl of human erythrocytes were washed three times with PBS and added to a 96-well microplate, and 100 μl of a sample solution at various concentrations was added thereto and then allowed to react at 37° C. for 30 minutes. Thereafter, the reaction solution was centrifuged at 1,500 rpm for 10 minutes, and 100 μl of the supernatant was transferred to a fresh microtiter plate, and then the degree of hemoglobin leakage following hemolysis was measured at 414 nm. DMSO (2%) was used as a solvent control for the sample, and Triton X-100 (1 mg/ml) was used as an experimental control for hemolysis of erythrocytes. Hemolytic activity was calculated using the following equation.
(%) Hemolysis=[(Abs. S−Abs. C)/(Abs. T−Abs. C)]×100
Abs. S: absorbance of sample-added group
Abs. C: absorbance of DMSO-added group
Abs. T: absorbance of Triton X-100-added group

[1] = tested on: Salmonella typhimurium KCTC 1926; assay: Disc-paper clear zone test, antibacterial; assay type: cell-based; parameters: key: —: no clear zone; details: antibiotic 1 μg/disc; ST
Text: (§1) For evaluation of the antibacterial activities, the following strains were used: Escherichia coli KCTC 1682, Proteus vulgaris KCTC 2433, Pseudomonas aeruginosa KACC 10186, and Salmonella typhimurium KCTC 1926, which are Gram-negative bacteria, and Staphylococcus aureus KCTC 1916, Staphylococcus epidermidis ATCC 12228, and Listeria monocytogenes KACC 10550, Bacillus subtilis KCTC 1924, which are Gram-positive bacteria. Meanwhile, for evaluation of the antifungal activities, Saccharomyces cerevisiae IF0 0233 and Candida albicans KCTC 1940 that causes Candidiasis fungal infection were used.
(§2) First, for evaluation of the antibacterial activities, each bacterial strain was inoculated into nutrient broth (Difco Co., USA) and cultured at 37° C. for 24 hours. Then, each strain was adjusted to an O.D.600 of 0.1, and then 100 μl of each strain was plated on a Petri dish (90 mm, Green Cross, Korea) containing nutrient agar (Difco Co., USA) medium, and 5 μl of each extract sample added to sterile disc-paper (6.5 mm diameter, Whatsman No. 2) was added to each strain which was then incubated at 37° C. for 24 hours. For evaluation of the antifungal activities, each fungal strain was cultured using Sabouraud dextrose (Difco Co. USA) at 30° C. for 24 hours in the same manner as described above, and the antifungal activity of each extract sample was evaluated by measuring the size of the clear zone. As a control, each of the antibacterial agent ampicillin and the antifungal agent miconazole (Sigma Co., USA) was at a concentration of 1 μg/disc. The size of the clear zone was measured by measuring, in units of mm, the diameter of the part where growth was invisible with the naked eye, and was expressed as a representative result after three or more evaluations.
(§3) The antimicrobial activities of the fraction of each of the Vespa velutina nigrithorax, V. simillima simillima Smith and V. mandarinia Smith extracts, prepared in Example 4, were measured according to the same method as the antibacterial and antifungal activity evaluation described in Example 3.

[2] = tested on: Staphylococcus aureus KCTC 1916; assay: Disc-paper clear zone test, antibacterial; assay type: cell-based; parameters: key: —: no clear zone; details: antibiotic 1 μg/disc; SA
Text: as §1, §2, §3

[3] = tested on: Bacillus subtilis KCTC 1924; assay: Disc-paper clear zone test, antibacterial; assay type: cell-based; parameters: key: —: no clear zone; details: antibiotic 1 μg/disc; BS
Text: as §1, §2, §3

[4] = tested on: Pseudomonas aeruginosa KACC 10186; assay: Disc-paper clear zone test, antibacterial; assay type: cell-based; parameters: key: —: no clear zone; details: antibiotic 1 μg/disc; PA
Text: as §1, §2, §3

[5] = tested on: Staphylococcus epidermidis ATCC 12228; assay: Disc-paper clear zone test, antibacterial; assay type: cell-based; parameters: key: —: no clear zone; details: antibiotic 1 μg/disc; SE
Text: as §1, §2, §3

[6] = tested on: Proteus vulgaris KCTC 2433; assay: Disc-paper clear zone test, antibacterial; assay type: cell-based; parameters: key: —: no clear zone; details: antibiotic 1 μg/disc; PV
Text: as §1, §2, §3

[7] = tested on: Listeria monocytogenes KACC 10550; assay: Disc-paper clear zone test, antibacterial; assay type: cell-based; parameters: key: —: no clear zone; details: antibiotic 1 μg/disc; LM
Text: as §1, §2, §3

[8] = tested on: Escherichia coli KCTC 1682; assay: Disc-paper clear zone test, antibacterial; assay type: cell-based; parameters: key: —: no clear zone; details: antibiotic 1 μg/disc; EC
Text: as §1, §2, §3

[9] = tested on: Candida albicans KCTC 1940; assay: Disc-paper clear zone test, antifungal; assay type: cell-based; parameters: key: —: no clear zone; details: antibiotic 1 μg/disc; CA
Text: as §1, §2, §3

[10] = tested on: Saccharomyces cerevisiae IF0 0233; assay: Disc-paper clear zone test, antifungal; assay type: cell-based; parameters: key: —: no clear zone; details: antibiotic 1 μg/disc; SC
Text: as §1, §2, §3

[11] = tested on: gram-positive bacteria, gram-negative bacteria and fungi; assay: Disc-paper clear zone test, summary over the whole panel; assay type: cell-based; details: 1 μg/disc; span over the gram-positive and gram-negative bacteria; read-out: Clear zone size
Text: as §1
First, for evaluation of the antibacterial activities, each bacterial strain was inoculated into nutrient broth (Difco Co., USA) and cultured at 37° C. for 24 hours. […] For evaluation of the antifungal activities, each fungal strain was cultured using Sabouraud dextrose (Difco Co. USA) at 30° C. for 24 hours in the same manner as described above, and the antifungal activity of each extract sample was evaluated by measuring the size of the clear zone. […] The size of the clear zone was measured by measuring, in units of mm, the diameter of the part where growth was invisible with the naked eye, and was expressed as a representative result after three or more evaluations.

| Molecule | Human erythrocyte hemolytic activity (human erythrocytes; 0.0032 mg/ml) [%] | Human erythrocyte hemolytic activity (human erythrocytes; 0.0063 mg/ml) [%] | Human erythrocyte hemolytic activity (human erythrocytes; 0.0125 mg/ml) [%] | Human erythrocyte hemolytic activity (human erythrocytes; 0.05 mg/ml) [%] | Human erythrocyte hemolytic activity (human erythrocytes; 0.1 mg/ml) [%] | Clear zone [1] | Clear zone [2] | Clear zone [3] | Clear zone [4] | Clear zone [5] | Clear zone [6] | Clear zone [7] | Clear zone [8] | Clear zone [9] | Clear zone [10] | zone of inhibition at 1 µg/disc [11] [mm] | Human erythrocyte hemolytic activity (human erythrocytes; 1.0 mg/ml) |
| --- | --- | --- | --- | --- | --- | --- | --- | --- | --- | --- | --- | --- | --- | --- | --- | --- | --- |
| C[C@@H]1[C@H](O)[C@@H](C)/C=C/C=C/C=C/C=C/C=C/C=C/C=C/[C@H](O[C@@H]2O[C@H](C)[C@@H](O)[C@H](N)[C@@H]2O)C[C@@H]2O[C@](O)(C[C@@H](O)C[C@@H](O)[C@H](O)CC[C@@H](O)C[C@@H](O)CC(=O)O[C@H]1C)C[C@H](O)[C@H]2C(=O)O [Amphotericin B] | 6.5 ± 0.9 | 21.6 ± 3.7 | 48.2 ± 5.9 | 72.4 ± 5.2 | 95.8 ± 0.3 |  |  |  |  |  |  |  |  |  |  |  |  |
| CC1(C)S[C@@H]2[C@H](NC(=O)[C@H](N)c3ccccc3)C(=O)N2[C@H]1C(=O)O [Ampicillin, ampicillin] |  |  |  |  |  | 20.0 mm | 26.0 mm | 23.5 mm | 16.0 mm | 20.0 mm | 30.0 mm | 26.0 mm | 9.0 mm | — | — | 9 to 30 |  |
| Clc1ccc(COC(Cn2ccnc2)c2ccc(Cl)cc2Cl)c(Cl)c1 (stereo not drawn) [Miconazole, miconazole] |  |  |  |  |  | — | — | — | — | — | — | — | — | 8.5 mm | 8.5 mm |  |  |
| Triton X-100 |  |  |  |  |  |  |  |  |  |  |  |  |  |  |  |  | 100% and 100.0 ± 0.1% |
